Tests used:
Format in all cases: cell-based, human
granulocytes [1] = test: aberrant enzyme activities in febrile children, granulocytes (Table 7)
lymphocytes [2] = test: enzyme activity with fluorogenic substrate, normal lymphocytes (Table 3A)
monocytes = test: aberrant enzyme activities in febrile children, monocytes (Table 7)
lymphocytes [3] = test: aberrant enzyme activities in febrile children, lymphocytes (Table 7)
granulocytes [4] = test: peptidase activity in leukemia and non-leukemia patients, granulocytes (Table 6C); design: unit not given here
From the text: (§1) Artificial intelligence was used to analyze data of cellular enzyme functions, and determine normal and disease states. Peptidases were used to distinguish leukemia from non-leukemia (output pattern). For input patterns lymphocyte and granulocyte cell types were used with aminopeptidases, cathepsins and dipeptidylpeptidase enzyme activities. In this Example, illustrated in Tables 6A-6C, three normals and three leukemia patients were used as known output patterns for the neural network to learn (in practice, the larger the learning set the more accurate unknown prediction will be). Unknowns were then presented to the learned algorithm as shown in the test case examples. Clinical diagnosis was confirmed by physicians. The trained neural network was able to correctly classify the leukemia from the non-leukemia.

lymphocytes [5] = test: peptidase activity in leukemia and non-leukemia patients, lymphocytes (Table 6C); design: unit not given here
From the text: as §1

[6] = system: metabolically active whole cell; test: substrate panel in normals and HIV + patients, TB infection (Table 4); design: unit not given here
Protocol: A panel of assay compounds are assembled consisting of Ala-aminopeptidase and Lys-aminopeptidase, Dipeptidyl peptidase IV (Ala-Ala)2 rhodamine 110 and Cathepsin D to indicate possible TB infection in AIDS related cases.
A panel Of enzymatic substrates is performed consisting of Ala-aminopeptidase and Lys-aminopeptidase, Dipeptidyl peptidase IV (Ala-Ala)2 rhodamine 110 and Cathepsin D to indicate possible TB infection in AIDS related cases.

O=C1OC2(c3ccc(OP(=O)(O)O)cc3Oc3cc(OP(=O)(O)O)ccc32)c2ccccc21 [DPO4, (PO4)2 fluorescein]
aberrant enzyme activity, GRANS (granulocytes [1]; P88 Enteritis): .smallcircle. | aberrant enzyme activity, GRANS (granulocytes [1]; P89 Viral Stomatitis): + (>0.25 Increase over normal range) | aberrant enzyme activity, GRANS (granulocytes [1]; P92 Adenitis): + (>0.25 Increase over normal range) | aberrant enzyme activity, GRANS (granulocytes [1]; P95 Viral Syndrome): .smallcircle. | aberrant enzyme activity, GRANS (granulocytes [1]; P96 Viral Syndrome): .smallcircle. | aberrant enzyme activity, GRANS (granulocytes [1]; P97 Pyelonephritis): .smallcircle. | aberrant enzyme activity, GRANS (granulocytes [1]; P99 Viral Syndrome): .smallcircle. | aberrant enzyme activity, GRANS (granulocytes [1]; P101 Fever -- Unknown Origin): + (>0.25 Increase over normal range) | aberrant enzyme activity, GRANS (granulocytes [1]; P102 UTI): .smallcircle. | aberrant enzyme activity, GRANS (granulocytes [1]; P103 Viral Syndrome): + (>0.25 Increase over normal range) | NORMAL LEUKOCYTE ENZYME ACTIVITY LYMPHS Mean (lymphocytes [2]): 54.29 | aberrant enzyme activity, MONOS (monocytes; P88 Enteritis): .smallcircle. | aberrant enzyme activity, MONOS (monocytes; P89 Viral Stomatitis): + (>0.25 Increase over normal range) | aberrant enzyme activity, MONOS (monocytes; P92 Adenitis): + (>0.25 Increase over normal range) | aberrant enzyme activity, MONOS (monocytes; P95 Viral Syndrome): + (>0.25 Increase over normal range) | aberrant enzyme activity, MONOS (monocytes; P97 Pyelonephritis): .smallcircle. | aberrant enzyme activity, MONOS (monocytes; P99 Viral Syndrome): .smallcircle. | aberrant enzyme activity, MONOS (monocytes; P101 Fever -- Unknown Origin): + (>0.25 Increase over normal range) | aberrant enzyme activity, MONOS (monocytes; P102 UTI): .smallcircle. | aberrant enzyme activity, MONOS (monocytes; P103 Viral Syndrome): + (>0.25 Increase over normal range) | aberrant enzyme activity, LYMPHS (lymphocytes [3]; P88 Enteritis): .smallcircle. | aberrant enzyme activity, LYMPHS (lymphocytes [3]; P89 Viral Stomatitis): .smallcircle. | aberrant enzyme activity, LYMPHS (lymphocytes [3]; P92 Adenitis): .smallcircle. | aberrant enzyme activity, LYMPHS (lymphocytes [3]; P95 Viral Syndrome): .smallcircle. | aberrant enzyme activity, LYMPHS (lymphocytes [3]; P96 Viral Syndrome): - (>0.25 Decrease over normal range) | aberrant enzyme activity, LYMPHS (lymphocytes [3]; P97 Pyelonephritis): .smallcircle. | aberrant enzyme activity, LYMPHS (lymphocytes [3]; P99 Viral Syndrome): .smallcircle. | aberrant enzyme activity, LYMPHS (lymphocytes [3]; P101 Fever -- Unknown Origin): .smallcircle. | aberrant enzyme activity, LYMPHS (lymphocytes [3]; P102 UTI): .smallcircle. | aberrant enzyme activity, LYMPHS (lymphocytes [3]; P103 Viral Syndrome): .smallcircle.

NCCCC[C@H](N)C(=O)Nc1ccc2c(c1)Oc1cc(NC(=O)[C@@H](N)CCCCN)ccc1C21OC(=O)c2ccccc21 [LYS, (H-L-Lys)2 Rho 110 .4TFA]
aberrant enzyme activity, GRANS (granulocytes [1]; P103 Viral Syndrome): .smallcircle. | aberrant enzyme activity, MONOS (monocytes; P97 Pyelonephritis): .smallcircle. | enzyme activity, Grans (granulocytes [4]; J22 12/9/91 A M L): 1.90 | enzyme activity, Grans (granulocytes [4]; N191 normal): 1.20 | enzyme activity, Grans (granulocytes [4]; N192 normal): 1.20 | enzyme activity, Grans (granulocytes [4]; N199 normal): 0.95 | aberrant enzyme activity, LYMPHS (lymphocytes [3]; P92 Adenitis): .smallcircle. | aberrant enzyme activity, LYMPHS (lymphocytes [3]; P97 Pyelonephritis): .smallcircle. | aberrant enzyme activity, LYMPHS (lymphocytes [3]; P103 Viral Syndrome): .smallcircle. | enzyme activity, Lymphs (lymphocytes [5]; J4 11/21/91 acute leuk.): 0.77 | enzyme activity, Lymphs (lymphocytes [5]; J19 11/27/91 C L L): 0.98 | enzyme activity, Lymphs (lymphocytes [5]; J22 12/2/91 A M L): 0.74 | enzyme activity, Lymphs (lymphocytes [5]; J22 12/9/91 A M L): 1.20 | enzyme activity, Lymphs (lymphocytes [5]; N192 normal): 0.56 | enzyme activity, Lymphs (lymphocytes [5]; N193 normal): 0.52 | enzyme activity, Lymphs (lymphocytes [5]; N194 normal): 0.93 | enzyme activity, Lymphs (lymphocytes [5]; N197 normal): 0.70 | enzyme activity, Lymphs (lymphocytes [5]; N199 normal): 0.33 | enzyme activity, Lymphs (lymphocytes [5]; N200 normal): 0.90 | enzyme activity, Lymphs (lymphocytes [5]; N202 normal): 0.71 | enzyme activity, Lymphs (lymphocytes [5]; P71 ac. pyelonephritis): 0.91 | MEAN DELTA FL ([6]; HIV + PATIENTS): 7.4 | MEAN DELTA FL ([6]; NORMALS): 10.5

O=C1OC2(c3ccc(NC(=O)[C@@H]4CCCN4)cc3Oc3cc(NC(=O)[C@@H]4CCCN4)ccc32)c2ccccc21 [PRO, (H-L-Pro)2 --Rho 110 .2TFA]
aberrant enzyme activity, GRANS (granulocytes [1]; P92 Adenitis): .smallcircle. | aberrant enzyme activity, GRANS (granulocytes [1]; P97 Pyelonephritis): .smallcircle. | aberrant enzyme activity, GRANS (granulocytes [1]; P103 Viral Syndrome): .smallcircle. | aberrant enzyme activity, MONOS (monocytes; P92 Adenitis): .smallcircle. | aberrant enzyme activity, MONOS (monocytes; P97 Pyelonephritis): .smallcircle. | aberrant enzyme activity, MONOS (monocytes; P103 Viral Syndrome): .smallcircle. | enzyme activity, Grans (granulocytes [4]; J19 11/27/91 C L L): 5.50 | enzyme activity, Grans (granulocytes [4]; N195 normal): 4.70 | enzyme activity, Grans (granulocytes [4]; P69 pancreatic CA): 5.70 | enzyme activity, Grans (granulocytes [4]; P70 cirrhosis/hemobilia): 0.66 | aberrant enzyme activity, LYMPHS (lymphocytes [3]; P92 Adenitis): .smallcircle. | aberrant enzyme activity, LYMPHS (lymphocytes [3]; P97 Pyelonephritis): .smallcircle. | aberrant enzyme activity, LYMPHS (lymphocytes [3]; P103 Viral Syndrome): .smallcircle. | enzyme activity, Lymphs (lymphocytes [5]; J4 11/21/91 acute leuk.): 0.47 | enzyme activity, Lymphs (lymphocytes [5]; J4 12/2/91 A L): 0.29 | enzyme activity, Lymphs (lymphocytes [5]; J4 12/3/91 acute leuk.): 0.24 | enzyme activity, Lymphs (lymphocytes [5]; J5 11/27/91 A M L): 0.89 | enzyme activity, Lymphs (lymphocytes [5]; J19 11/27/91 C L L): 0.44 | enzyme activity, Lymphs (lymphocytes [5]; J22 12/2/91 A M L): 0.40 | enzyme activity, Lymphs (lymphocytes [5]; J22 12/9/91 A M L): 0.44 | enzyme activity, Lymphs (lymphocytes [5]; N191 normal): 0.69 | enzyme activity, Lymphs (lymphocytes [5]; N193 normal): 0.95 | enzyme activity, Lymphs (lymphocytes [5]; N194 normal): 0.86 | enzyme activity, Lymphs (lymphocytes [5]; N195 normal): 0.88 | enzyme activity, Lymphs (lymphocytes [5]; N197 normal): 0.57 | enzyme activity, Lymphs (lymphocytes [5]; N200 normal): 0.74 | enzyme activity, Lymphs (lymphocytes [5]; N201 normal): 1.10 | enzyme activity, Lymphs (lymphocytes [5]; N202 normal): 0.89 | enzyme activity, Lymphs (lymphocytes [5]; P68 tachycardia): 0.70 | enzyme activity, Lymphs (lymphocytes [5]; P69 pancreatic CA): 0.66 | enzyme activity, Lymphs (lymphocytes [5]; P70 cirrhosis/hemobilia): 0.56 | enzyme activity, Lymphs (lymphocytes [5]; P71 ac. pyelonephritis): 0.52 | MEAN DELTA FL ([6]; HIV + PATIENTS): 11.0 | MEAN DELTA FL ([6]; NORMALS): 11.4

CC(C)[C@H](N)C(=O)N[C@@H](CO)C(=O)Nc1ccc2c(c1)Oc1cc(NC(=O)[C@H](CO)NC(=O)[C@@H](N)C(C)C)ccc1C21OC(=O)c2ccccc21 [VS, (H-L-Val--Ser)2 Rho 110 .2TFA]
aberrant enzyme activity, GRANS (granulocytes [1]; P96 Viral Syndrome): .smallcircle. | aberrant enzyme activity, GRANS (granulocytes [1]; P97 Pyelonephritis): .smallcircle. | aberrant enzyme activity, GRANS (granulocytes [1]; P103 Viral Syndrome): .smallcircle. | aberrant enzyme activity, MONOS (monocytes; P96 Viral Syndrome): .smallcircle. | aberrant enzyme activity, MONOS (monocytes; P103 Viral Syndrome): .smallcircle. | enzyme activity, Grans (granulocytes [4]; J4 11/21/91 acute leuk.): 0.37 | enzyme activity, Grans (granulocytes [4]; J4 12/2/91 A L): 0.14 | enzyme activity, Grans (granulocytes [4]; J4 12/3/91 acute leuk.): 0.23 | enzyme activity, Grans (granulocytes [4]; J22 12/2/91 A M L): 0.22 | enzyme activity, Grans (granulocytes [4]; J22 12/9/91 A M L): 0.32 | enzyme activity, Grans (granulocytes [4]; N191 normal): 0.64 | enzyme activity, Grans (granulocytes [4]; N192 normal): 0.40 | enzyme activity, Grans (granulocytes [4]; N193 normal): 0.44 | enzyme activity, Grans (granulocytes [4]; N194 normal): 0.29 | enzyme activity, Grans (granulocytes [4]; N195 normal): 0.37 | enzyme activity, Grans (granulocytes [4]; N197 normal): 0.58 | enzyme activity, Grans (granulocytes [4]; N199 normal): 0.14 | enzyme activity, Grans (granulocytes [4]; N200 normal): 0.24 | enzyme activity, Grans (granulocytes [4]; N201 normal): 0.32 | enzyme activity, Grans (granulocytes [4]; N202 normal): 0.24 | enzyme activity, Grans (granulocytes [4]; P68 tachycardia): 0.33 | enzyme activity, Grans (granulocytes [4]; P69 pancreatic CA): 0.57 | enzyme activity, Grans (granulocytes [4]; P70 cirrhosis/hemobilia): 0.26 | enzyme activity, Grans (granulocytes [4]; P71 ac. pyelonephritis): 0.69 | aberrant enzyme activity, LYMPHS (lymphocytes [3]; P95 Viral Syndrome): .smallcircle. | aberrant enzyme activity, LYMPHS (lymphocytes [3]; P96 Viral Syndrome): .smallcircle. | aberrant enzyme activity, LYMPHS (lymphocytes [3]; P97 Pyelonephritis): .smallcircle. | aberrant enzyme activity, LYMPHS (lymphocytes [3]; P103 Viral Syndrome): .smallcircle. | enzyme activity, Lymphs (lymphocytes [5]; J4 11/21/91 acute leuk.): 0.05 | enzyme activity, Lymphs (lymphocytes [5]; J4 12/2/91 A L): 0.03 | enzyme activity, Lymphs (lymphocytes [5]; J4 12/3/91 acute leuk.): 0.04 | enzyme activity, Lymphs (lymphocytes [5]; J5 11/27/91 A M L): 0.05 | enzyme activity, Lymphs (lymphocytes [5]; J19 11/27/91 C L L): 0.01 | enzyme activity, Lymphs (lymphocytes [5]; J22 12/2/91 A M L): 0.01 | enzyme activity, Lymphs (lymphocytes [5]; J22 12/9/91 A M L): 0.04 | enzyme activity, Lymphs (lymphocytes [5]; N191 normal): 0.14 | enzyme activity, Lymphs (lymphocytes [5]; N192 normal): 0.08 | enzyme activity, Lymphs (lymphocytes [5]; N193 normal): 0.09 | enzyme activity, Lymphs (lymphocytes [5]; N194 normal): 0.07 | enzyme activity, Lymphs (lymphocytes [5]; N195 normal): 0.06 | enzyme activity, Lymphs (lymphocytes [5]; N197 normal): 0.11 | enzyme activity, Lymphs (lymphocytes [5]; N199 normal): 0.03 | enzyme activity, Lymphs (lymphocytes [5]; N200 normal): 0.06 | enzyme activity, Lymphs (lymphocytes [5]; N201 normal): 0.07 | enzyme activity, Lymphs (lymphocytes [5]; N202 normal): 0.04 | enzyme activity, Lymphs (lymphocytes [5]; N206 normal): 0.28 | enzyme activity, Lymphs (lymphocytes [5]; P68 tachycardia): 0.05 | enzyme activity, Lymphs (lymphocytes [5]; P69 pancreatic CA): 0.18 | enzyme activity, Lymphs (lymphocytes [5]; P70 cirrhosis/hemobilia): 0.04 | enzyme activity, Lymphs (lymphocytes [5]; P71 ac. pyelonephritis): 0.08 | MEAN DELTA FL ([6]; HIV + PATIENTS): 32.5 | MEAN DELTA FL ([6]; NORMALS): 24.6
